# The supplement of paper PMC10307832
# Assays:
# Assay in all cases: relative viability (nuclei count vs DMSO), 5 days (fraction); higher = more cells survive
# NCI-H520 = system: NCI-H520
# Procedure, shortened: (§1)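 Medians of duplicate plates are given as relative viability. That measure is the nuclei count in treated wells divided by the count in vehicle wells. Counts were taken on 4× images of lung cancer cell lines in 1536-well plates, 5 days after pin-tool dosing the day after seeding with one drug alone or a fixed anchor-drug dose plus five library-drug doses (not always all listed) in √10 steps.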
# NCI-H1299 = system: NCI-H1299
# Procedure, shortened: as §1
# NCI-H1703 = system: NCI-H1703
# Procedure, shortened: as §1
# A549 = system: A549
# Procedure, shortened: as §1
# NCI-H2023 = system: NCI-H2023
# Procedure, shortened: as §1
# NCI-H727 = system: NCI-H727
# Procedure, shortened: as §1
# EBC-1 = system: EBC-1
# Procedure, shortened: as §1
# IA-LM = system: IA-LM
# Procedure, shortened: as §1
# Calu-6 = system: Calu-6
# Procedure, shortened: as §1
# NCI-H2170 = system: NCI-H2170
# Procedure, shortened: as §1
smiles,measurement,setting,value
CN1CCN(CCOc2cc(OC3CCOCC3)c3c(Nc4c(Cl)ccc5c4OCO5)ncnc3c2)CC1 [Saracatinib] + CS(=O)(=O)N1CCN(Cc2cc3nc(-c4cccc5[nH]ncc45)nc(N4CCOCC4)c3s2)CC1 [Pictilisib] (partner 1 µM),relative viability,NCI-H520; first compound 0.02 µM,0.321
same,relative viability,NCI-H520; first compound 0.2 µM,0.263
same,relative viability,NCI-H520; first compound 0.6325 µM,0.273
same,relative viability,NCI-H520; first compound 2 µM,0.228
same,relative viability,NCI-H1299; first compound 0.02 µM,0.69
same,relative viability,NCI-H1299; first compound 0.2 µM,0.528
same,relative viability,NCI-H1299; first compound 0.6325 µM,0.387
same,relative viability,NCI-H1299; first compound 2 µM,0.256
same,relative viability,NCI-H1703; first compound 0.02 µM,0.228
same,relative viability,NCI-H1703; first compound 0.2 µM,0.242
same,relative viability,NCI-H1703; first compound 0.6325 µM,0.181
same,relative viability,NCI-H1703; first compound 2 µM,0.203
same,relative viability,A549; first compound 0.02 µM,0.491
same,relative viability,A549; first compound 0.2 µM,0.412
same,relative viability,A549; first compound 0.6325 µM,0.515
same,relative viability,A549; first compound 2 µM,0.399
same,relative viability,NCI-H2023; first compound 0.02 µM,0.267
same,relative viability,NCI-H2023; first compound 0.2 µM,0.317
same,relative viability,NCI-H2023; first compound 0.6325 µM,0.242
same,relative viability,NCI-H2023; first compound 2 µM,0.197
same,relative viability,NCI-H727; first compound 0.02 µM,0.295
same,relative viability,NCI-H727; first compound 0.2 µM,0.423
same,relative viability,NCI-H727; first compound 0.6325 µM,0.354
same,relative viability,NCI-H727; first compound 2 µM,0.407
same,relative viability,EBC-1; first compound 0.02 µM,0.445
same,relative viability,EBC-1; first compound 0.2 µM,0.397
same,relative viability,EBC-1; first compound 0.6325 µM,0.387
same,relative viability,EBC-1; first compound 2 µM,0.429
same,relative viability,IA-LM; first compound 0.02 µM,0.33
same,relative viability,IA-LM; first compound 0.2 µM,0.445
same,relative viability,IA-LM; first compound 0.6325 µM,0.515
same,relative viability,IA-LM; first compound 2 µM,0.37
same,relative viability,Calu-6; first compound 0.02 µM,0.858
same,relative viability,Calu-6; first compound 0.2 µM,0.645
same,relative viability,Calu-6; first compound 0.6325 µM,0.702
same,relative viability,Calu-6; first compound 2 µM,0.613
same,relative viability,NCI-H2170; first compound 0.02 µM,0.355
same,relative viability,NCI-H2170; first compound 0.2 µM,0.233
same,relative viability,NCI-H2170; first compound 0.6325 µM,0.234
same,relative viability,NCI-H2170; first compound 2 µM,0.208
CCNC(=O)c1noc(-c2cc(C(C)C)c(O)cc2O)c1-c1ccc(CN2CCOCC2)cc1 [Luminespib] + CS(=O)(=O)CCNCc1ccc(-c2ccc3ncnc(Nc4ccc(OCc5cccc(F)c5)c(Cl)c4)c3c2)o1 [Lapatinib] (partner 2 µM),relative viability,NCI-H520; first compound 0.002 µM,0.848
same,relative viability,NCI-H520; first compound 0.006325 µM,0.792
same,relative viability,NCI-H520; first compound 0.02 µM,0.353
same,relative viability,NCI-H520; first compound 0.06325 µM,0.11
same,relative viability,NCI-H520; first compound 0.2 µM,0.138
same,relative viability,NCI-H1299; first compound 0.002 µM,1.04
same,relative viability,NCI-H1299; first compound 0.006325 µM,0.965
same,relative viability,NCI-H1299; first compound 0.02 µM,0.989
same,relative viability,NCI-H1299; first compound 0.06325 µM,0.892
same,relative viability,NCI-H1299; first compound 0.2 µM,0.219
same,relative viability,NCI-H1703; first compound 0.002 µM,1.14
same,relative viability,NCI-H1703; first compound 0.006325 µM,1.07
same,relative viability,NCI-H1703; first compound 0.02 µM,0.998
same,relative viability,NCI-H1703; first compound 0.06325 µM,0.158
same,relative viability,NCI-H1703; first compound 0.2 µM,0.16
same,relative viability,A549; first compound 0.002 µM,0.983
same,relative viability,A549; first compound 0.006325 µM,0.903
same,relative viability,A549; first compound 0.02 µM,0.897
same,relative viability,A549; first compound 0.06325 µM,0.627
same,relative viability,A549; first compound 0.2 µM,0.0491
same,relative viability,NCI-H2023; first compound 0.002 µM,0.866
same,relative viability,NCI-H2023; first compound 0.006325 µM,0.787
same,relative viability,NCI-H2023; first compound 0.02 µM,0.124
same,relative viability,NCI-H2023; first compound 0.06325 µM,0.0702
same,relative viability,NCI-H2023; first compound 0.2 µM,0.0724
same,relative viability,NCI-H727; first compound 0.002 µM,0.82
same,relative viability,NCI-H727; first compound 0.006325 µM,0.768
same,relative viability,NCI-H727; first compound 0.02 µM,0.435
same,relative viability,NCI-H727; first compound 0.06325 µM,0.227
same,relative viability,NCI-H727; first compound 0.2 µM,0.192
same,relative viability,EBC-1; first compound 0.002 µM,0.204
same,relative viability,EBC-1; first compound 0.006325 µM,0.223
same,relative viability,EBC-1; first compound 0.02 µM,0.233
same,relative viability,EBC-1; first compound 0.06325 µM,0.187
same,relative viability,EBC-1; first compound 0.2 µM,0.194
same,relative viability,IA-LM; first compound 0.002 µM,0.929
same,relative viability,IA-LM; first compound 0.006325 µM,0.935
same,relative viability,IA-LM; first compound 0.02 µM,0.643
same,relative viability,IA-LM; first compound 0.06325 µM,0.0552
same,relative viability,IA-LM; first compound 0.2 µM,0.066
same,relative viability,Calu-6; first compound 0.002 µM,1.11
same,relative viability,Calu-6; first compound 0.006325 µM,0.962
same,relative viability,Calu-6; first compound 0.02 µM,1.38
same,relative viability,Calu-6; first compound 0.06325 µM,0.166
same,relative viability,Calu-6; first compound 0.2 µM,0.119
same,relative viability,NCI-H2170; first compound 0.002 µM,0.254
same,relative viability,NCI-H2170; first compound 0.006325 µM,0.28
same,relative viability,NCI-H2170; first compound 0.02 µM,0.248
same,relative viability,NCI-H2170; first compound 0.06325 µM,0.291
same,relative viability,NCI-H2170; first compound 0.2 µM,0.203
